From US10172846
Where two headings read alike, the source gives them in different places.

Tests used:
[1] = rcm bond, 14-membered ring
[2] = rcm bond, Hoveyda-Grubbs 2nd generation
[3] = from (1R,2)-1-{[(1R,2R,4R)-2-(N′-tert-Butoxycarbonyl-N-hept-6-enyl-hydrazinocarbonyl)-4-(7-methoxy-2-phenyl-quinolin-4-yloxy)-cyclopentanecarbonyl]-amino}-2-vinyl-cyclopropanecarboxylic acid ethyl ester; rcm bond; 15-membered ring; Hoveyda-Grubbs II; DCM; 7.0 mM

Compound: CCOC(=O)C12CC1C=CCCCCNC(=O)C1CC(Oc3cc(-c4ccccc4)nc4cc(OC)ccc34)CC1C(=O)N2 (centres unmarked)
- ring closure, isolated yield ([1]; from 1-{[2-Hex-5-enylcarbamoyl-4-(7-methoxy-2-phenyl-quinolin-4-yloxy)-cyclopentanecarbonyl]-amino}-2-vinyl-cycloprpanecarboxylic acid ethyl ester, Hoveyda-Grubbs II, DCM, 5.8 mM): 32%

Compound: CCOC(=O)[C@@]12C[C@H]1C=CCCCCNC(=O)[C@@H]1C[C@H](Oc3cc(-c4ccccc4)nc4cc(OC)ccc34)C[C@H]1C(=O)N2
- ring closure, yield of all isomers ([2]; from C=CCCCCNC(=O)[C@@H]1C[C@H](Oc2cc(-c3ccccc3)nc3cc(OC)ccc23)C[C@H]1C(=O)N[C@]1(C(=O)OCC)C[C@H]1C=C, DCM, 5.8 mM, 40.0 °C): 32%

Compound: CCOC(=O)C12CC1C=CCCCCN(C)C(=O)C1CC(OS(=O)(=O)c3ccc(Br)cc3)CC1C(=O)N2 (centres unmarked)
- ring closure, isolated yield ([1]; from 1-{(4-(4-Bromo-benzensulphonyloxy-2-(hex-5-enyl-methyl-carbamoyl)-cyclopentanecarbonyl-amino}2-vinyl-cyclopropanecarboxylic add ethyl ester)), Hoveyda-Grubbs I, DCM, 4.2 mM): 60%

Compound: CCOC(=O)[C@@]12C[C@H]1/C=C\CCCCCN(NC(=O)OC(C)(C)C)C(=O)[C@@H]1C[C@H](Oc3cc(-c4ccccc4)nc4cc(OC)ccc34)C[C@H]1C(=O)N2
- ring closure, yield of all isomers ([2]; from C=CCCCCCN(NC(=O)OC(C)(C)C)C(=O)[C@@H]1C[C@H](Oc2cc(-c3ccccc3)nc3cc(OC)ccc23)C[C@H]1C(=O)N[C@]1(C(=O)OCC)C[C@H]1C=C, DCM, 6.97 mM, 40.0 °C, 16.0 h): 70%
- ring closure, yield after HPLC [3]: 70%

Compound: CN1CCCCC=CC2CC2(C(=O)NS(=O)(=O)C2CC2)NC(=O)C2CC(O)CC2C1=O (centres unmarked)
- ring closure, isolated yield ([1]; from 4-Hydroxycyclopentane-1,2-dicarboxylic acid 1-[(1-cyclopropanesulphonylaminocarbonyl-2-vinylcyclopropyl)-amide] 2-(hex-5-enyl-methylamide), Hoveyda-Grubbs II, 1,2-dichloroethane, 5.4 mM, 160.0 °C): 26%

Compound: CCOC(=O)[C@@]12C[C@H]1C=CCCCCN(C)C(=O)[C@@H]1C[C@H](Oc3cc(-c4ccccc4)nc4cc(OC)ccc34)C[C@H]1C(=O)N2
- ring closure, yield of all isomers ([2]; from C=CCCCCN(C)C(=O)[C@@H]1C[C@H](Oc2cc(-c3ccccc3)nc3cc(OC)ccc23)C[C@H]1C(=O)N[C@]1(C(=O)OCC)C[C@H]1C=C, DCE, 2.02 mM, 83.0 °C): 37%

Compound: CCOC(=O)C12CC1C=CCCCCNC(=O)C1CC(Oc3cc(-c4ccccc4)nc4cc(OC)ccc34)CC1C(=O)N2C (centres unmarked)
- ring closure, isolated yield ([1]; from 1-{[2-Hex-5-enyl-methyl-carbamoyl)-4-(7-methoxy-2-phenyl-quinolin-4-yloxy)-cyclopentanecarbonyl]-amino-2-vinyl-cyclopropanecarboxylic add ethyl ester, Hoveyda-Grubbs II, dichloroethane, 2.02 mM): 37%
